Results: patent US20230346831A1, “METHODS FOR TREATING […] USING LOW DOSE CARBON MONOXIDE” (priority 2020, published 2023)

Tests used:
CYP1B1 = assay: Western blot analysis; assay type: cell-based, human; settings: 250 ppm CO
Protocol: 1.5 × 10^6 cells were seeded in 6-cm cell culture plates with DMEM containing 10% FBS, 0.2 mM L-glutamine and 1% penicillin/streptomycin. Additionally, MCF7/TGL/pQ was cultured in media containing 0.5 µgml^-1 puromycin and 25 mM HEPES. After 16 hours of incubation, cells were lysed with RIPA buffer (0.1% SDS, 1% TritonX-100, 0.5% sodium deoxycholate, 25 mM Tris pH 8.0, 150 mM NaCl, and 1 mM EDTA) supplemented with a protease inhibitor mixture and PhosSTOP (Roche, Basel, Switzerland). Proteins were quantified with Bradford assay (Bio-Rad, Hercules CA). Equal amounts of proteins were separated with SDS-PAGE and transferred to nitrocellulose membranes. To visualize equal protein loading, blots were stained with Ponceau S. Blots were incubated in 5% non-fat milk in TBST, probed with primary antibodies to CYP1B1 (1:1,000, Abcam, Cambridge, United Kingdom, Cat. No. 32649), HO-1 (1:1,000, Santa Cruz Biotechnology, Dallas, TX, Cat. No. 136960), BACH1 (1:1,000, ABclonal, Woburn, MA, Cat. No. A5393), E-cadherin (1:1,1000, BD Biosciences (Cat. No. 610181), San Jose, CA), α-tubulin (1:1,000, Sigma (Cat. No. T5168), St. Louis MO), and vimentin (1:1,000, Cell Signaling Tech (Cat. No. 5741), Danvers, MA), and then were incubated with horseradish peroxidase-conjugated secondary antibodies. Protein bands were visualized by enhanced chemical luminescence (Pierce, Dallas, TX). […]

[1] = test system: oxygen consumption / mitochondrial respiration; assay: Seahorse XF Cell Mito Stress Test; assay type: cell-based, human
From the text: In particular, MDA-MB-231/TGL and MCF7/TGL/PQ cells treated with carbon monoxide met their energetic needs at the same rate as untreated control cells. […] In particular, MDA-MB-231/TGL and MCF7/TGL/PQ cells treated with carbon monoxide stimulated their mitochondrial respiratory chains at the same rate as untreated control cells.
The heme group confers functionality to multiple proteins, which can include oxygen carrying, oxygen reduction, electron transfer, and other processes. To determine whether the decrease of heme levels impacts levels of oxygen-utilizing hemoproteins and therefore reduces oxygen consumption, oxygen consumption rates (OCR) was measured. However, lower OCR after 16 hours in 250 ppm CO was not detected using Seahorse XF Cell Mito Stress Tests in MCF7 and MDA-MB-231 (data not shown).

[2] = MDA-MB-231 and MCF7 cells, low dose carbon monoxide

[C-]#[O+] [CO, Carbon monoxide] was tested, and the CYP1B1 protein levels (CYP1B1; MCF7 and MDA-MB-231 cells) was “significantly reduced”, the CYP1B1 protein levels (CYP1B1; PDAC 8988T cells) was “reduced” and the “lower oxygen consumption rates (OCR)” value ([1]; MCF7 and MDA-MB-231, after 16 hours in 250 ppm CO, data not shown) was “not detected”. The “mitochondrial spare respiratory capacity” value ([1]; MDA-MB-231 and MCF7 cells, carbon monoxide treatment) was “improved”, the “mitochondrial ATP production” value [1, 2] was “did not affect” and the “stress-induced mitochondrial maximum respiration” value [1, 2] was “did not affect”.
